According to US20150322094A1, “USE OF SUBSTITUTED 2,3-DIHYDRO-1-BENZOFURAN-4-CARBOXYLIC ACIDS OR SALTS THEREOF AS ACTIVE SUBSTANCES AGAINST ABIOTIC PLANT STRESS” (Bayer CropScience AG, priority 2012, published 2015):

What was measured:
Type in all cases: in vivo
BRSNS (Brassica napus) = test: Drought stress, spray application, greenhouse pot test; conditions: evaluated after recovery phase
Description: (§1) Seeds of monocotyledonous and dicotyledonous crop plants were laid out in sandy loam in wood-fiber pots, covered with soil or sand and cultivated in a greenhouse under good growth conditions. The test plants were treated at the early leaf stage (BBCH10-BBCH13). To assure uniform water supply before commencement of stress, the potted plants were supplied with water by dam irrigation prior to substance application. The inventive compounds, formulated in the form of wettable powders (WP), were sprayed onto the green parts of the plants as an aqueous suspension at an equivalent water application rate of 600 l/ha with addition of 0.2% wetting agent (e.g. agrotin). Substance application was followed immediately by stress treatment of the plants. For this purpose, the pots were transferred into plastic inserts in order to prevent them from subsequently drying out too quickly.
(§2) Drought stress was induced by gradual drying out under the following conditions:
(§3) “Day”: 14 hours with illumination at 26° C.
(§4) “Night”: 10 hours without illumination at 18° C.
(§5) The duration of the respective stress phases was guided mainly by the state of the untreated, stressed control plants and thus varied from crop to crop. It was ended (by re-irrigating and transfer to a greenhouse with good growth conditions) as soon as irreversible damage was observed on the untreated, stressed control plants. In the case of dicotyledonous crops, for example oilseed rape and soya, the duration of the drought stress phase varied between 3 and 6 days, in the case of monocotyledonous crops, for example wheat, barley or corn, between 6 and 11 days.
(§6) The end of the stress phase was followed by an approx. 5-7-day recovery phase, during which the plants were once again kept under good growth conditions in a greenhouse.
(§7) In order to rule out any influence of the effects observed by any fungicidal or insecticidal action of the test compounds, it was additionally ensured that the tests proceeded without fungal infection or insect infestation.
(§8) After the recovery phase had ended, the intensities of damage were analysed in visual comparison to untreated, unstressed controls for the same age. The intensity of damage was first recorded as a percentage (100%=plants have died, 0%=like control plants). These values were then used to calculate the efficacy of the test compounds (=percentage reduction in the intensity of damage as a result of substance application) by the following formula: […]
(§9) DVus: damage value of the untreated, stressed control
(§10) DVts: damage value of the plants treated with test compound
(§11) In each trial, 3 pots per crop and dosage were treated and evaluated; the resulting efficacies are thus averages. The values in tables A-1, A-2 and A-3 below are again averages from one to three independent trials.

[1] = system: TRZAS (Triticum aestivum); test: as above; conditions: average of one to three independent trials
Description: as §1, §2, §3, §4, §5, §6, §7, §8, §9, §10, §11

ZEAMX (Zea mays) [2] = test: as above; conditions: average of one to three independent trials
Description: as §1, §2, §3, §4, §5, §6, §7, §8, §9, §10, §11

[3] = system: TRZAS (Triticum aestivum); test: Cold stress, spray application, climate-controlled chamber test; conditions: averages from one to three independent trials
Source text: (§12) Seeds of monocotyledonous and dicotyledonous crop plants were laid out in sandy loam in plastic pots, covered with soil or sand and cultivated in a greenhouse under good growth conditions until the early leaf stage (BBCH12). The trial plants were then likewise treated at the early leaf stage. To assure uniform water supply before commencement of stress, the potted plants were supplied with water by dam irrigation prior to substance application. The inventive compounds, formulated in the form of wettable powders (WP), were sprayed onto the green parts of the plants as an aqueous suspension at an equivalent water application rate of 300 I/ha with addition of 0.2% wetting agent (e.g. agrotin). Substance application was followed immediately by stress treatment of the plants. For this purpose, the plants in question were transferred into a climate-controlled chamber and, after a wait period of 24 h, subjected to a cold stress profile with the following conditions: • 1) “Morning” warm-up phase from 2 to 16° C. for 5 hours • 2) “Day” at 16° C. for 6 hours • 3) “Evening” cool-down phase from 16 to 2° C. for 7 hours • 4) “Night” at 2° C. for 6 hours
(§13) Over the entire trial period, both the stressed trial plants and the control plants were supplied with the same amount of water which enabled good growth under control conditions. For this purpose, the unstressed control plants which served as a comparison were kept in a greenhouse under good growth conditions and observing the following conditions: • 1) “Day”: 14 hours with illumination at 22° C. • 2) “Night”: 10 hours without illumination at 12° C.
(§14) After a period of two weeks of the cold stress profile, the stress phase was ended, and there followed a recovery phase of about three weeks, during which the plants were once again kept in a greenhouse under good growth conditions. In order to rule out any influence of the effects observed by any fungicidal or insecticidal action of the test compounds, it was additionally ensured that the tests proceeded without fungal infection or insect infestation.
as §8, §9, §10
(§15) In each trial, 8 pots per crop and dosage were treated and evaluated; the resulting efficacies are therefore averages. The values in tables B-1 and B-2 below are again averages from one to three independent trials.

ZEAMX (Zea mays) [4] = test: as above; conditions: averages from one to three independent trials
Source text: as §12, §13, §14, §8, §9, §10, §15

| SMILES | EF (BRSNS): efficacy = percentage reduction in the intensity of damage (BRSNS (Brassica napus); dosage 2.5 g/ha) [%] | EF (TRZAS): efficacy, percentage reduction in the intensity of damage ([1]; dosage 25 g/ha) [%] | EF (ZEAMX): efficacy, percentage reduction in the intensity of damage (ZEAMX (Zea mays) [2]; dosage 25 g/ha) [%] | also measured |
| --- | --- | --- | --- | --- |
| COC(=O)c1c(O)ccc2c1C(C)C(c1ccc(OC)cc1)O2 (centres unmarked) [I.1-20] | >5 |  |  |  |
| COC(=O)c1c(O)ccc2c1CC(c1ccc(OC(C)(C)C)cc1)O2 (centres unmarked) [I.1-32] |  | >5 | >5 | EF (BRSNS): efficacy = percentage reduction in the intensity of damage (BRSNS (Brassica napus); dosage 25 g/ha): >5% |
| COC(=O)c1c(O)ccc2c1C(C)C(c1ccc(OC)c(OC)c1)O2 (centres unmarked) [I.1-21, Methyl 2-(3,4-dimethoxyphenyl)-5-hydroxy-3-methyl-2,3-dihydro-1-benzofuran-4-carboxylate] |  |  |  | EF (BRSNS): efficacy = percentage reduction in the intensity of damage (BRSNS (Brassica napus); dosage 25 g/ha): >5% |
| COC(=O)c1c(O)ccc2c1CC(C)(c1ccc(C)cc1)O2 (centres unmarked) [I.1-44] | >5 |  | >5 |  |
| COC(=O)c1c(O)ccc2c1CC(c1ccc(OCc3ccccc3)c(OC)c1)O2 (centres unmarked) [I.1-35] |  | >5 | >5 | EF (BRSNS): efficacy = percentage reduction in the intensity of damage (BRSNS (Brassica napus); dosage 25 g/ha): >5%; EF (TRZAS): efficacy, percentage reduction in the intensity of damage ([3]; dosage 25 g/ha): >5%; EF (ZEAMX): efficacy, percentage reduction in the intensity of damage (ZEAMX (Zea mays) [4]; dosage 25 g/ha): >5% |
| COC(=O)c1c(OS(=O)(=O)C(F)(F)F)ccc2c1CC(c1ccc(OC)cc1)O2 (centres unmarked) [I.16-4] |  |  | >5 |  |
| COC(=O)c1c(O)ccc2c1CC(c1ccc(OC)c(OC)c1)O2 (centres unmarked) [I.1-12] |  | >5 |  | EF (BRSNS): efficacy = percentage reduction in the intensity of damage (BRSNS (Brassica napus); dosage 25 g/ha): >5% |
| COC(=O)c1c(O)ccc2c1CC(c1ccc(OC(C)=O)cc1)O2 (centres unmarked) [I.1-40] |  | >5 | >5 | EF (TRZAS): efficacy, percentage reduction in the intensity of damage ([3]; dosage 25 g/ha): >5%; EF (ZEAMX): efficacy, percentage reduction in the intensity of damage (ZEAMX (Zea mays) [4]; dosage 25 g/ha): >5% |
| COC(=O)c1c(OC(C)=O)ccc2c1CC(c1ccc(OC)cc1)O2 (centres unmarked) [I.5-4] | >5 |  |  |  |
| COC(=O)c1c(O)ccc2c1CC(c1ccc3ccccc3c1)O2 (centres unmarked) [I.1-48] | >5 |  |  | EF (ZEAMX): efficacy, percentage reduction in the intensity of damage (ZEAMX (Zea mays) [2]; dosage 250 g/ha): >5% |
| COC(=O)c1c(O)ccc2c1CC(C)(c1ccccc1)O2 (centres unmarked) [I.1-16] | >5 |  |  |  |
| CCOC(=O)c1c(O)ccc2c1CC(c1ccc(OC)cc1)O2 (centres unmarked) [I.4-4] | >5 | >5 | >5 | EF (TRZAS): efficacy, percentage reduction in the intensity of damage ([3]; dosage 25 g/ha): >5%; EF (ZEAMX): efficacy, percentage reduction in the intensity of damage (ZEAMX (Zea mays) [4]; dosage 6.25 g/ha): >5% |
| CCOC(=O)c1c(O)ccc2c1C(C)C(c1ccc(OC)c(OC)c1)O2 (centres unmarked) [I.4-21] | >5 |  |  |  |
| COC(=O)c1c(OC(=O)C2CCC2)ccc2c1CC(c1ccc(OC)cc1)O2 (centres unmarked) [I.6-4, Methyl 5-[(cyclobutylcarbonyl)oxy]-2-(4-methoxyphenyl)-2,3-dihydro-1-benzofuran-4-carboxylate] |  | >5 |  | EF (BRSNS): efficacy = percentage reduction in the intensity of damage (BRSNS (Brassica napus); dosage 25 g/ha): >5% |
| COC(=O)c1c(O)ccc2c1CC(c1cccc(OC)c1)O2 (centres unmarked) [I.1-3] |  |  |  | EF (TRZAS): efficacy, percentage reduction in the intensity of damage ([1]; dosage 250 g/ha): >5% |
| COC(=O)c1c(O)ccc2c1CC(C)(c1ccc3ccccc3c1)O2 (centres unmarked) [I.1-49] | >5 |  |  |  |
| COC(=O)c1c(O)ccc2c1CC(c1ccc(OC)cc1)O2 (centres unmarked) [I.1-4, Methyl 2-(4-methoxyphenyl)-5-hydroxy-2,3-dihydro-1-benzofuran-4-carboxylate] |  |  |  | EF (BRSNS): efficacy = percentage reduction in the intensity of damage (BRSNS (Brassica napus); dosage 100 g/ha): >5%; EF (ZEAMX): efficacy, percentage reduction in the intensity of damage (ZEAMX (Zea mays) [2]; dosage 100 g/ha): >5%; EF (ZEAMX): efficacy, percentage reduction in the intensity of damage (ZEAMX (Zea mays) [4]; dosage 25 g/ha): >5% |
| COC(=O)c1c(O)ccc2c1CC(c1ccc(Oc3ccccc3)cc1)O2 (centres unmarked) [I.1-41] | >5 |  | >5 | EF (TRZAS): efficacy, percentage reduction in the intensity of damage ([3]; dosage 6.25 g/ha): >5%; EF (ZEAMX): efficacy, percentage reduction in the intensity of damage (ZEAMX (Zea mays) [4]; dosage 6.25 g/ha): >5% |
| COc1ccc(C2Cc3c(ccc(O)c3C(=O)O)O2)cc1 (centres unmarked) [I.2-4] |  |  |  | EF (BRSNS): efficacy = percentage reduction in the intensity of damage (BRSNS (Brassica napus); dosage 250 g/ha): >5% |
